ChEMBL document CHEMBL3400144, “Design and synthesis of novel 1,2-dithiolan-4-yl benzoate derivatives as PTP1B inhibitors” (Bioorg Med Chem Lett, 2015)

Key:
[1] = biological target: T1, Tyrosine-protein phosphatase non-receptor type 1 (Homo sapiens, UniProt P18031); assay: Inhibition of PTP1B (unknown origin)
T1 sequence (P18031 whole entry): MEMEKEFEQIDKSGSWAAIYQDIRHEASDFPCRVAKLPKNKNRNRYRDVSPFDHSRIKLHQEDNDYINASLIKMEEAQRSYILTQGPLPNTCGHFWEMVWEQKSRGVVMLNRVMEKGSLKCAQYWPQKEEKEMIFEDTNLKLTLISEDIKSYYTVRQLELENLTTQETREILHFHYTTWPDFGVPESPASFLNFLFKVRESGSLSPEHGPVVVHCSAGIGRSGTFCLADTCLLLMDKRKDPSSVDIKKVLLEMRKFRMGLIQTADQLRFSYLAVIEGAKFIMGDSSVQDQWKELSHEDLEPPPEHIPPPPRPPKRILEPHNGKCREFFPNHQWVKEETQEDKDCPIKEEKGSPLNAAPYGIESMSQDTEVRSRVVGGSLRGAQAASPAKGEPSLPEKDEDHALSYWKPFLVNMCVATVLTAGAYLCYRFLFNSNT

[2] = biological target: T2, Tyrosine-protein phosphatase non-receptor type 2 (Homo sapiens, UniProt P17706); assay: Inhibition of TCPTP (unknown origin)
T2 sequence (P17706 whole entry): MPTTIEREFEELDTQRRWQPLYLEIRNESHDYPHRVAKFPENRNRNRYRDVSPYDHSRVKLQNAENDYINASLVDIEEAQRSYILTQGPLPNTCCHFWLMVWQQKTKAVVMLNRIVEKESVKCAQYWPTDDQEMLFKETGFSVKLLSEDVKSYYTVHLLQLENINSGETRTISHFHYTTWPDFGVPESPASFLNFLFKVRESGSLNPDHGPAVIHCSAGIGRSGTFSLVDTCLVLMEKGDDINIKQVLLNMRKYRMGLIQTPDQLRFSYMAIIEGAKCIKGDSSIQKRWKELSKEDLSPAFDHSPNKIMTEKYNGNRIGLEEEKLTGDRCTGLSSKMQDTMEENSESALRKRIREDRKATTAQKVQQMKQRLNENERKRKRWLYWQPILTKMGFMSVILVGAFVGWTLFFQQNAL

[3] = biological target: Tyrosine-protein phosphatase non-receptor type 6 (Homo sapiens, UniProt P29350); assay: Inhibition of SHP1 (unknown origin)
[4] = biological target: T3, Tyrosine-protein phosphatase non-receptor type 11 (Homo sapiens, UniProt Q06124); assay: Inhibition of SHP2 (unknown origin)
T3 sequence (Q06124 whole entry): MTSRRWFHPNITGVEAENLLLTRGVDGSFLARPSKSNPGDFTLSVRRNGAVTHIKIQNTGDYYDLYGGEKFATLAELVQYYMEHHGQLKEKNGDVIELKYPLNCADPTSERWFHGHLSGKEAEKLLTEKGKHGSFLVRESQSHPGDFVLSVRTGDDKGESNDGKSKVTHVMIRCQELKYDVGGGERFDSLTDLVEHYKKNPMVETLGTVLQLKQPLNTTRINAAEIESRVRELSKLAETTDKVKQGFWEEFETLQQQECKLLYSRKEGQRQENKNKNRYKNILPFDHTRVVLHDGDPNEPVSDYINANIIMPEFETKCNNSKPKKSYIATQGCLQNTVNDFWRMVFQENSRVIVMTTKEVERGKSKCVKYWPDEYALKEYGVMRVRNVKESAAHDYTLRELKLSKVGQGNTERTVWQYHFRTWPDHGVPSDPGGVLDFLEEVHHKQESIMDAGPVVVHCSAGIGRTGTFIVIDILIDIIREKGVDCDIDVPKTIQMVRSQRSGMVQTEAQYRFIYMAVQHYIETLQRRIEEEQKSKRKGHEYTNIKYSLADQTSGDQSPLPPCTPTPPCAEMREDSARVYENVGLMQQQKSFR

[5] = biological target: Receptor-type tyrosine-protein phosphatase F (Homo sapiens, UniProt P10586); assay: Inhibition of LAR (unknown origin)
[6] = organism: Homo sapiens; assay: Selectivity ratio of IC50 for TCPTP (unknown origin) to IC50 for PTP1B (unknown origin)

Sequence of Tyrosine-protein phosphatase non-receptor type 6 (P29350 whole entry): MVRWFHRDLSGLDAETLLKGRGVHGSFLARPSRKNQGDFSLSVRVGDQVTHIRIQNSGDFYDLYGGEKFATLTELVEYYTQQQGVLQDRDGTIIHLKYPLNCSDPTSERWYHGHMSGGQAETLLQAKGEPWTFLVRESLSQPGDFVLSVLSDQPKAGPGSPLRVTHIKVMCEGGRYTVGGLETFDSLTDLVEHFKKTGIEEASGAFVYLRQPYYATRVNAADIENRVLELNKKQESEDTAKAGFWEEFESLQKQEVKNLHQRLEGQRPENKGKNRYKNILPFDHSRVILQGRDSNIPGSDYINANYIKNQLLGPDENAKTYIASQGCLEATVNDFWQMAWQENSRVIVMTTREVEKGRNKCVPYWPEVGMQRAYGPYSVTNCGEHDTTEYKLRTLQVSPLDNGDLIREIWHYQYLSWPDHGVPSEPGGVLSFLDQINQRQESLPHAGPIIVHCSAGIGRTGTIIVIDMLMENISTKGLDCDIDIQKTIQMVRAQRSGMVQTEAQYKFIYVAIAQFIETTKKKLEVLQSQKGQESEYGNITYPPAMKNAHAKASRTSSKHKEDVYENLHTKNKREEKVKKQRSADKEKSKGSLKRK
Sequence of Receptor-type tyrosine-protein phosphatase F (P10586 whole entry): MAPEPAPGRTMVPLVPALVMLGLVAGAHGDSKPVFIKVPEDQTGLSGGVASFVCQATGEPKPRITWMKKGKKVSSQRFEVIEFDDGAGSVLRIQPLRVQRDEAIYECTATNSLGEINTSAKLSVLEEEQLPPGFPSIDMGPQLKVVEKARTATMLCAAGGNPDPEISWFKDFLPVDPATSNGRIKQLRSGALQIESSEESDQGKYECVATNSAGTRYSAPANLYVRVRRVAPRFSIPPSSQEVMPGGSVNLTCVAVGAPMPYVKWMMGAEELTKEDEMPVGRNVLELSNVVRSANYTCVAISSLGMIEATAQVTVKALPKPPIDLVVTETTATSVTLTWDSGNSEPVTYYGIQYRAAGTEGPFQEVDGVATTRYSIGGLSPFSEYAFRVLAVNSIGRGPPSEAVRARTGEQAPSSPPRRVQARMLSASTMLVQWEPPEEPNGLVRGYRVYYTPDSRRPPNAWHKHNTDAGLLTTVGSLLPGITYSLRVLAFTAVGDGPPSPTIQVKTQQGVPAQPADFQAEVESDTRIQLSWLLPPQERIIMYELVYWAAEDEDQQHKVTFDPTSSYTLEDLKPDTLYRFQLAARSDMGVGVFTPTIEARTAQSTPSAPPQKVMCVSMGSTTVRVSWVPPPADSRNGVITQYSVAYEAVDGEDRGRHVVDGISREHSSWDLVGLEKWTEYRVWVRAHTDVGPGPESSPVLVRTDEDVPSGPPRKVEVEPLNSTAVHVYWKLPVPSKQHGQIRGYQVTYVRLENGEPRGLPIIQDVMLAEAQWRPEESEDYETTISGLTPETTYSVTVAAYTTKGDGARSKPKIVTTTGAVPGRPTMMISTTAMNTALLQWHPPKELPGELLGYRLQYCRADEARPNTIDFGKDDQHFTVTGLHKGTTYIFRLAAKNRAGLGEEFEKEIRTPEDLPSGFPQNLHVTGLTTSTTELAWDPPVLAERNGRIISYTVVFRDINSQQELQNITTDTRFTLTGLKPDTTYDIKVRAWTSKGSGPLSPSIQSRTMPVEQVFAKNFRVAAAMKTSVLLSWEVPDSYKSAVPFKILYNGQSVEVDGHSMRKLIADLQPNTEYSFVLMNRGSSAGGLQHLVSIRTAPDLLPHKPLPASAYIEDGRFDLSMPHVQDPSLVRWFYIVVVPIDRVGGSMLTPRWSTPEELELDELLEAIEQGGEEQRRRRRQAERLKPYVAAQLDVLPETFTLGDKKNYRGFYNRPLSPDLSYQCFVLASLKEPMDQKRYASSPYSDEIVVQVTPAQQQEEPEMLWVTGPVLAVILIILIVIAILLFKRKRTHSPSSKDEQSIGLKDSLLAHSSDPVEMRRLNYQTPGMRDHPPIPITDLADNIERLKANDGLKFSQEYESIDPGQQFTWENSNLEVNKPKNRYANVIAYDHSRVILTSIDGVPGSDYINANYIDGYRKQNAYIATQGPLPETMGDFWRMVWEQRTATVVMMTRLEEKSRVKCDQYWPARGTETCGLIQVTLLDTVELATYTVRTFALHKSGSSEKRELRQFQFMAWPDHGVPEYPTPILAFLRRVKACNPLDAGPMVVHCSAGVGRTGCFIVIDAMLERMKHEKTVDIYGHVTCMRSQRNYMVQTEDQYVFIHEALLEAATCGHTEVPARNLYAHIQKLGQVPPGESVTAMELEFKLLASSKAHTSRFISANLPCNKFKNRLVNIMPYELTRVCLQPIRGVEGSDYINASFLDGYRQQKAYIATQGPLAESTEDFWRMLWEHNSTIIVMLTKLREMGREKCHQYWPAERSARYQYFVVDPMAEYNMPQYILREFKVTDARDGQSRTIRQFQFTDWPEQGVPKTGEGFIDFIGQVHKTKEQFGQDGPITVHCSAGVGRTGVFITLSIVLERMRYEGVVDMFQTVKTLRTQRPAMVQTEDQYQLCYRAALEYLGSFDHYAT

Row | IC50 ([1]; read-out: IC50) | IC50 [2] | IC50 ([3]; read-out: IC50) | IC50 ([4]; read-out: IC50) | IC50 [5] | IC50 [3] | IC50 [4] | Ratio IC50 [6] | IC50 [1] | Structure (SMILES)
1 | 4.68 µM | 4.36 µM | 9.21 µM | 9.41 µM | Not Active | – | – | – | – | O=C(OCCCCC#Cc1ccc(C(=O)OC2CSSC2)cc1)c1ccc(F)cc1
2 | 23.5 µM | 23.2 µM | 19.3 µM | 18.3 µM | Not Active | – | – | – | – | COc1ccccc1C(=O)OCCCCC#Cc1ccc(C(=O)OC2CSSC2)cc1
3 | 8.85 µM | 30.8 µM | – | – | Not Active | Not Active | Not Active | – | – | O=C(OC1CSSC1)c1ccc(OCCCCCCOC(=O)c2cc(Br)ccc2Br)cc1
4 | 2.73 µM | 26.7 µM | 15.7 µM | 8.25 µM | Not Active | – | – | 10 | – | O=C(OC1CSSC1)c1ccc(C#CCCOC(=O)c2cc(Br)ccc2Br)cc1
5 | – | 27.6 µM | 32.2 µM | 10.9 µM | Not Active | – | – | – | Not Active | O=C(OC1CSSC1)c1ccc(OCCCOC(=O)c2cc(Br)ccc2Br)cc1
6 | 26.3 µM | 26.3 µM | 38.4 µM | 34.6 µM | Not Active | – | – | – | – | COc1cccc(C(=O)OCCCCC#Cc2ccc(C(=O)OC3CSSC3)cc2)c1
7 | 6.55 µM | 4.58 µM | 5.13 µM | 6.64 µM | Not Active | – | – | – | – | COc1ccc(C(=O)OCCCCC#Cc2ccc(C(=O)OC3CSSC3)cc2)cc1
8 | 4.43 µM | 6.48 µM | 8.67 µM | 10.5 µM | Not Active | – | – | – | – | O=C(OC1CSSC1)c1ccc(C#CCCCCOC(=O)c2ccccc2F)cc1
9 | 5.18 µM | 9.21 µM | 10 µM | 8.91 µM | Not Active | – | – | – | – | O=C(OCCCCC#Cc1ccc(C(=O)OC2CSSC2)cc1)c1cccc(F)c1
10 | 2.68 µM | 17.4 µM | 11.1 µM | 9.69 µM | Not Active | – | – | > 6 | – | O=C(OC1CSSC1)c1ccc(CCCCCCOC(=O)c2cc(Br)ccc2Br)cc1
11 | 9.12 µM | 7.83 µM | 9.25 µM | 11.5 µM | Not Active | – | – | – | – | O=C(OC1CSSC1)c1ccc(C#CCCCCOC(=O)c2ccccc2[N+](=O)[O-])cc1
12 | 4.27 µM | 20 µM | – | – | Not Active | Not Active | Not Active | 5 | – | COc1ccc(C(=O)OCCCCC#Cc2ccc(C(=O)OC3CSSC3)cc2)c(OC)c1
13 | 7.26 µM | 35 µM | – | – | Not Active | Not Active | Not Active | – | – | O=C(OC1CSSC1)c1ccc(OCCOC(=O)c2cc(Br)ccc2Br)cc1
14 | 0.59 µM | 1.88 µM | – | 13.2 µM | Not Active | Not Active | – | 3 | – | O=C(OC1CSSC1)c1ccc(C#CCCCCOC(=O)c2cc(Br)ccc2Br)cc1
15 | 10.1 µM | 9.46 µM | 24.9 µM | 24.6 µM | Not Active | – | – | – | – | O=C(OCCCCC#Cc1ccc(C(=O)OC2CSSC2)cc1)c1ccc([N+](=O)[O-])cc1
16 | 9.7 µM | 12.9 µM | 23.6 µM | 22.3 µM | Not Active | – | – | – | – | O=C(OCCCCC#Cc1ccc(C(=O)OC2CSSC2)cc1)c1cccc([N+](=O)[O-])c1
